Source: patent US20190284192A1, “NITROGENOUS MACROCYCLIC COMPOUND, PREPARATION METHOD THEREFOR, PHARMACEUTICAL COMPOSITION AND APPLICATION THEREOF” (LUOXIN PHARMACEUTICAL (SHANGHAI) CO., LTD., priority 2016, published 2019)
Like-named read-outs stand apart in the source and are kept apart here.

Assays:
BRD4 (BD1) = target: T1, BRD4 (BD1) (Homo sapiens, UniProt O60885); assay: BRD4 (BD1) bromodomain binding, HTRF; conditions: 2 h incubation at r.t.
T1 construct: Each member comprises two tandem bromodomains (BD1 and BD2) for recognizing the acetylated lysine residues

BRD4 (BD2) = target: T2, BRD4 (BD2) (Homo sapiens, UniProt O60885); assay: BRD4 (BD2) bromodomain binding, HTRF; conditions: 2 h incubation at r.t.
T2 construct: Each member comprises two tandem bromodomains (BD1 and BD2) for recognizing the acetylated lysine residues

MV-4-11 cells = assay: Inhibitory effect on MV-4-11 cells (CellTiter-Glo); assay type: cell-based; conditions: Homo sapiens, read-out: MV-4-11
SU-DHL-6 cells = assay: Inhibitory effect on SU-DHL-6 cells (CellTiter-Glo); assay type: cell-based; conditions: Homo sapiens, read-out: SU-DHL-6
Protocol: Determinations of the inhibition of the compounds from the above embodiments against SU-DHL-6 cells, the detailed operation steps are as followed:
The 1st Day: Seed the Cells on the Plate
1. The cells were verified that they were in good conditions by observation under microscope;
2. The cells were transferred to a centrifuge tubes, after centrifuged at 1000 rpm for 5 min, the supernatant was discarded;
3. The complete substrate (1640+10% FBS) was added, then blown and patted into single cell suspension, counted by Vi-cell cytometer, the cell suspension was adjusted to desired cell density by the complete medium.
4. The cells were inoculated into a 96 well plate, the cell number was 12000/well at 100 μL per well, 100 μL complete medium was added into the black control;
5. 37° C., 5% CO2 culture overnight.
The 2nd Day: Addition of the Drugs
1. 1000× Compound Plate Preparation
1.1. The test compound was prepared into 10 mM working solution by using DMSO. Then the STS was prepared into 2 mM working solution by using DMSO.
1.2. In the round bottom 96 wells plate, the column 2 of row A to H was added into 60 μL 10 mM test compound (or STS) working solution, columns 3-11 were added into 40 μL DMSO, 20 μL drug solution was pipetted from the column 2 to the column 3, blown and patted for a homogeneous mixture; then 20 μL solution was pipetted from the column 3 to the column 4, blown and patted for a homogeneous mixture, sequently, the drug was diluted by 3 times, 10 concentrations in total. The columns 1 and 12 were supplemented with 40 μL of DMSO.
2. Intermediate plate preparation
A sterile V-bottom 96 deep well plate was used and in each well, 495 μL FBS-free PRMI 1640 medium was added, then 5 μL of the diluted compound (or DMSO) in the 1000× compound plate was pipetted into corresponding position of the V-bottom 96 well plate, blown and patted evenly.
3.1. The cell plate was taken out from the incubator and was observed under microscope. The diluted compound or DMSO in the intermediate plate was added into the cell plate, 11 μL each well.
3.2. The cell was continued to be cultured at 37° C., 5% CO2 for 72 hours.
The 5th Day: CellTiter-Glo Detection of the Cell Activity
1. The CellTiter-Glo buffer and the reaction substrate were taken out from the refrigerator, after balanced to r.t., the buffer was poured into a brown bottle containing the substrate, the bottle was upside down to have the substrate powder sufficientaly dissolved.
2. The cell was observed under microscope; the cell plate was balanced to r.t.
3. The prepared CellTiter-Glo was added into the 96 well plate, at 100 μL/well.
4. The cell plate was placed on a shaker for 10 min, followed by standing at r.t. for 10 min.
5. A white seal film was attached to the bottom of the well plate, and the chemiluminescence signal of each well was detected by the Enspire microplate detector.
6. XLfit was used for data processing. Inhibition rate %=(d-c)/(d-b)×100, while d is the signal value of the DMSO treated group, c is the signal value of the compound treated group, b is signal value of the blank control that only containing medium and DMSO without cells. The data was fitted using the f (x)205[fit=(A+((B−A)/(1+((C/x)^∧D))))] equation in the XLfit software.

[1] = system: MV-4-11 subcutaneous xenograft tumor; assay: Anti-tumor efficacy in vivo, MV-4-11 subcutaneous xenograft model; set-up: species or system BALB/c nude mice; conditions: intragastric QD*14
Protocol: According to the growth of the cells, the treatment was passaged twice a week. When the cells are in the exponential growth phase, the cells are collected, counted, and inoculated.
Experimental protocol: 0.2 mL of cell suspension containing about 5×10^MV-4-11 cells (cell suspended in IMDM medium and added with 50% Matrigel) was inoculated subcutaneously into the right back of each mouse. Group administration was initiated when the average tumor volume reached approximately 136.94 mm^3 (day 15 post inoculation). Grouping method: Animals were weighed before dosing and tumor volume was measured. Grouping designed based on tumor volume.
The experimental indicator is to investigate whether tumor growth can be inhibited, delayed or cured. Tumor diameters were measured with vernier calipers three times a week. The formula for calculating tumor volume is: V=0.5×a×b^2, a and b represent the long and short diameters of the tumor, respectively. The antitumor effect of the compound was evaluated by T/C (%). T/C %=TRTV/CRTV×100% (TRTV: treatment group RTV; CRTV: negative comparative group RTV). The relative tumor volume RTV is calculated as RTV=Vt/V1. Where V1 is the measured tumor volume at the time of group administration (i.e., Day 1), and Vt is the tumor volume at each measurement.
The tumor volume and tumor size were analysed by statistical software. GraphPad Prism software was used for analyzation, p<0.05 is considered to have significant difference, p<0.01 is considered to have extremely significant difference.
Two-way Anova Bonferroni post-test is used to compare the tumor volume difference between the control group and the treatment group.

[2] = Body weight of MV-4-11 tumor-bearing mice during treatment; assay type: in vivo; conditions: intragastric QD*14, ABBV-075 3, GSK762 15, 4009 10 mg/kg
Protocol: The preparation and any revision of this experimental protocol are carried out in accordance with the evaluation criteria of the “Institute for Animal Care and Use (IACUC)” of Shanghai Chempartner Chemical Research Co., Ltd. The use and welfare of laboratory animals are carried out in accordance with the provisions of the Association for Assessment and Accreditation of Laboratory Animal Care (AAALAC). Animals are monitored daily for health and death. Routine examinations include observations of the effects of the test substance and the drug on the daily behavior of the animal such as behavioral activities, intake of water and feeds, weight change (three weights measured weekly), appearance signs or other anormal circumstance. The number of animal deaths and side effects in the group were recorded based on the number of animals in each group.

[3] = Metabolic stability in human liver microsomes; assay type: in vitro ADME; conditions: human liver microsomes 0.5 mg/mL, NADPH, 37° C.; for CLint scaled at 1 µM: pH 7.4, read-out: HLM_CLint
Protocol: (§1) Determinations of the metabolic stability of the compound from the above embodiments, the detailed operation steps are as followed:
(§2) 1. Preparation of buffer C:
(§3) Buffer A: 1.0 L of 0.1 M potassium dihydrogen phosphate buffer (containing 1.0 mM EDTA);
(§4) Buffer B: 1.0 L of 0.1 M dipotassium hydrogen phosphate buffer (containing 1.0 mM EDTA);
(§5) Buffer C: 500 mL Buffer B was titrated with Buffer A to pH 7.4.
(§6) 2. 10 mM stock solution preparation:
(§7) 10 mM test compound: A certain amount of the test compound was weighed and dissolved in DMSO.
(§8) 10 mM control: 5.455 mg of ketanserin dissolved in 1 mL DMSO.
(§9) 3. Preparation of the drug solution:
(§10) 500 μM solution: 5 μL of 10 mM stock solution (see step 2) was added into 95 μL ACN;
(§11) 1.5 μM dosing solution (dissolved in liver microsome solution):
(§12) 18.75 μL of 20 mg/mL liver microsomes was added into 479.75 μL of Buffer C, then 1.5 μL of 500 μM solution was added and mixed gently by shaking.
(§13) 4. Preparation of 6 mM NADPH solution:
(§14) 15 mg NADPH was weighted, then added into 3 mL of buffer C to prepare a 6 mM NADPH solution.
(§15) 5. 30 µL of 1.5 μM dosing solution (see step 3) was added into the wells of the 96-well plate set at different time points (0 minutes, 5 minutes, 15 minutes, 30 minutes, 45 minutes), number of dulplicate sample is 2.
(§16) 6. Preparation of a 0 minutes sample: 135 μL ACN (with internal standard) was added to the 0 minutes well, followed by 15 µL of 6 mM NADPH solution.
(§17) 7. The 96-well plate containing 1.5 μM dosing solution and NADPH solution were preheated in a 37° C. water bath for 5 minutes.
(§18) 8. The 15 µL of 6 mM NADPH solution preheated was added into the wells set to 5 minutes, 15 minutes, 30 minutes, 45 minutes, then the reaction was initiated and started counting the time.
(§19) 10. The sample was vortexed for 10 min, and then centrifuged for 15 minutes on a centrifuge (Thermo Multifuge×3R) using 5594×g.
(§20) 11. 50 μL of the supernatant was taken from the centrifuged sample, transferred to a 96-well sample plate to which 100 μL of ultrapure water had already been added, mixed, and finally sent to LC-MS/MS for analysis.
(§21) Half time (T1/2)=0.693/K (K is the rate constant obtained by linear regression of the logarithm of the concentration as vertical coordinates and the culturing time as the abscissa)
(§22) 2. According to the equation formula bellow, Excel was used to plot the compound content versus reaction time, as well as half life calculation (min)
(§23) Y=(Y0−Plateau)×e^(−K*X)+Plateau
(§24) Y0 represents the compound content at 0 minutes; Y represents the compound content; X represents the time point; K represents degration rate constant of the compound; Plateau represents the lowest possible content of the compound (defined herein as 0).

[4] = Metabolic stability in mouse liver microsomes; assay type: in vitro ADME; conditions: mouse liver microsomes 0.5 mg/mL, NADPH, 37° C.; for CLint scaled at 1 µM: pH 7.4, read-out: MLM_CLint
Protocol: as §1, §2, §3, §4, §5, §6, §7, §8, §9, §10, §11, §12, §13, §14, §15, §16, §17, §18, §19, §20, §21, §22, §23, §24

[5] = MV4-11, 72 hours, CellTiter-Glo

Cn1cc2c(c1C(N)=O)CCN(c1ccc(F)cc1)c1ncc(F)cc1-2 [Compound 4005, 9-fluoro-6-(4-fluorophenyl)-2-methyl-2,4,5,6-tetrahydropyrido[2,3-b]pyrrolo[3,4-d]azepin-3-carboxamide]
IC50 (BRD4 (BD1)): 163 nM | IC50 (BRD4 (BD2)): 550 nM | IC50 (MV-4-11 cells; [5]): > 10000 nM | IC50 (SU-DHL-6 cells; 72 hours, CellTiter-Glo): > 10000 nM

CCNC(=O)C[C@@H]1N=C(c2ccc(Cl)cc2)c2cc(OC)ccc2-n2c(C)nnc21 [GSK762]
anti-tumor effect on the MV-4-11 cell xenograft tumor mouse model ([1]; ABBV-075 3 mg/kg, GSK762 15 mg/kg, 4009 10 mg/kg): no significant anti-tumor effect | Average tumor weight, 15th day of treatement ([1]; ABBV-075 3, GSK762 15, 4009 10 mg/kg): 0.522 ± 0.11 g | Average RCBW, Treatment end Day 15 ([2]; relative body weight change vs Day 1): 5.07% | Average body weight, Treatment end Day 15 ([2]; x ± SEM): 21.86 ± 0.38 g | Average body weight, Treatment start Day 1 ([2]; x ± SEM): 20.82 ± 0.40 g

Cn1cc2c(c1C(N)=O)CCN(c1ccc(F)cc1)c1ccc(CS(C)(=O)=O)cc1-2 [Compound 4002, 6-(4-fluorophenyl)-2-methyl-9-(methylsulfonylmethyl)-2,4,5,6-tetrahydrobenzo[b]pyrrolo[3,4-d]azepin-3-carboxamide]
IC50 (BRD4 (BD1)): 26 nM | IC50 (BRD4 (BD2)): 47 nM | IC50 (MV-4-11 cells; [5]): 1120 nM | IC50 (SU-DHL-6 cells; 72 hours, CellTiter-Glo): 1930 nM | HLM_T1/2 [3]: 38.19 min | CLint scaled at 1 µM [3]: 45.5 mL/min/kg | MLM_T1/2 [4]: 23.42 min | CLint scaled at 1 µM [4]: 233 mL/min/kg

CCS(=O)(=O)Cc1ccc2c(c1)-c1cn(C)c(=O)cc1CN=C2c1ccc(Cl)cc1 [Compound 4011, 7-(4-chlorophenyl)-10-((ethylsulfone)methyl)-2-methyl-2,5-dihydro-3H-benzo[c]pyrido[3,4-e]Azazale-3-ketone]
IC50 (BRD4 (BD1)): 4 nM | IC50 (BRD4 (BD2)): 4 nM | IC50 (MV-4-11 cells; [5]): 65 nM | IC50 (SU-DHL-6 cells; 72 hours, CellTiter-Glo): 59 nM | HLM_T1/2 [3]: 1127.52 min | CLint scaled at 1 µM [3]: 1.54 mL/min/kg | MLM_T1/2 [4]: 1056.88 min | CLint scaled at 1 µM [4]: 5.16 mL/min/kg

Cn1cc2c(c1C#N)CC(=O)N(c1ccc(F)cc1)c1ccc(CS(C)(=O)=O)cc1-2 [Compound 4003, 6-(4-Fluorophenyl)-2-methyl-9-(methylsulfonemethyl)-5-oxo-2,4,5,6-tetrahydrobenzo[b]pyrrolo[3,4-d]azepin-3-nitrile]
IC50 (BRD4 (BD1)): 148 nM | IC50 (BRD4 (BD2)): 16 nM | IC50 (MV-4-11 cells; [5]): 1550 nM | IC50 (SU-DHL-6 cells; 72 hours, CellTiter-Glo): 2040 nM

Cn1cc2c(c1C(N)=O)CC(=O)N(c1ccc(F)cc1)c1ccc(CS(C)(=O)=O)cc1-2 [Compound 4001, 6-(4-fluorophenyl)-2-methyl-9-(methylsulfonemethyl)-5-oxo-2,4,5,6-tetrahydrobenzo[b]pyrrolo[3,4-d]azepin-3-carboxamide]
IC50 (BRD4 (BD1)): 124 nM | IC50 (BRD4 (BD2)): 25 nM | IC50 (MV-4-11 cells; [5]): 1440 nM | IC50 (SU-DHL-6 cells; 72 hours, CellTiter-Glo): 2000 nM

Cn1cc2c(cc1=O)CN=C(c1ccc(F)cc1)c1ccc(CS(C)(=O)=O)cc1-2 [Compound 4007, 7-(4-Fluorophenyl)-2-methyl-10-(methylsulfonemethyl)-2H-benzo[c]pyrido[3,4-e]azepin-3(5H)-ketone]
IC50 (BRD4 (BD1)): 6 nM | IC50 (BRD4 (BD2)): 7 nM | IC50 (MV-4-11 cells; [5]): 118 nM | IC50 (SU-DHL-6 cells; 72 hours, CellTiter-Glo): 253 nM | HLM_T1/2 [3]: ∞ | MLM_T1/2 [4]: 815.54 min | CLint scaled at 1 µM [4]: 6.69 mL/min/kg

Cc1sc2c(c1C)C(c1ccc(Cl)cc1)=N[C@@H](CC(=O)OC(C)(C)C)c1nnc(C)n1-2 [(+)-JQ1, reference compound]
IC50 (MV-4-11 cells; MV4-11, 72 h): 248 nM | IC50 (SU-DHL-6 cells; SU-DHL-6, 72 h): 198 nM
